System: infant fecal bacteria
Experiment: In vitro substrate fermentation model with infant fecal inocula, isobutyrate (BCFA) analysis (Example 78)
Type: cell-based
Details: for greater concentration of isobutyrate than any of the other substrates: infant fecal inoculum cultures, P<0.05

2′-α-L-Fucopyranosyl-D-Lactose [2′-FL]
fermentation by infant fecal bacteria (in vitro fermentation model): readily fermented | production of isobutyrate as compared to other substrates (in vitro fermentation model): enhances | greater concentration of isobutyrate than any of the other substrates (6 hours): approximately 5 fold | greater concentration of isobutyrate than any of the other substrates (12 hours): ~10 fold

Source: patent US10639319B2, “Human milk oligosaccharides for preventing injury and/or promoting healing of the gastrointestinal tract” (ABBOTT LABORATORIES, priority 2011, dated 2020)
